In test [1] the test system is HCT-116. In words: Cytotoxicity against human HCT116 cells. The test is classed as functional, cell-based.
In test [2] the target is Serine/threonine-protein kinase pim-1 (Homo sapiens, UniProt P11309). In words: Inhibition of human PIM1 measured after 5 mins by ELISA relative to control. A general note: ELISA stands for enzyme-linked immunosorbent assay.
The subject of test [3] is MCF7. Description: Cytotoxicity against human MCF7 cells. The test is classed as functional, cell-based.
Test [4] deals with HepG2. Description: Cytotoxicity against human HepG2 cells. The test is classed as functional, cell-based.
In test [5] the test system is HepG2. Description: Induction of apoptosis in human HepG2 cells assessed as upregulation of caspase 3 level measured up to 30 mins by immunoassay relative to control. The test is classed as functional.
Test [6] deals with HepG2. In words: Induction of apoptosis in human HepG2 cells assessed as decrease in Bcl2 level by qRT-PCR analysis relative to control. The test is classed as functional.
The test system of test [7] is HepG2. In words: Induction of apoptosis in human HepG2 cells assessed as increase in Bax level by qRT-PCR analysis relative to control. The test is classed as functional. On the technique in general: In qPCR the cycle at which signal appears reflects the starting amount.
Test [8] concerns HepG2. In words: Induction of apoptosis in human HepG2 cells assessed as increase in Bax/Bcl2 ratio by qRT-PCR analysis relative to control. The test is classed as functional.

Structures are written as SMILES.

`N#Cc1c(-c2cccc3ccccc23)cc(-c2ccc3ccccc3c2)[nH]c1=O`: the IC50 (as a rule, the midpoint of a concentration-inhibition curve) was found to be 228 µM in test [1], 10 µM in test [2], 236 µM in test [3] and 220 µM in test [4]. The inhibition (usually the drop in the measured response relative to a control, in per cent) in test [2] was 81%.
Regarding `O=c1[nH]cc(F)c(=O)[nH]1` [FLUOROURACIL], the IC50 in test [3] stood at 7.9 µM; in test [4], 8.1 µM.
Regarding `N#Cc1c(-c2cccs2)cc(-c2cccs2)nc1N`, the half-inhibitory concentration (IC50) in test [1] turned out to be 91.2 µM; in test [2], 7.52 µM; in test [3] it was 72.1 µM; in test [4] it was 28.3 µM. The inhibition in test [2] came to 85%.
On the same counts, the results for `N#Cc1c(-c2cccc3ccccc23)cc(-c2cc3c(ccc4ccccc43)oc2=O)nc1N` are 30.6 µM, 25.5 µM, 80.7 µM, 45.8 µM and 61.5%.
As to `COc1ccc(-c2cc(-c3cccs3)nc(N)c2C#N)cc1`, the IC50 in test [1] was 122 µM; in test [3] it was 88.3 µM; in test [4], 104 µM. Besides, in test [2], the inhibition stood at 76.9%.
For `N#Cc1c(-c2cccs2)cc(-c2cc3c(ccc4ccccc43)oc2=O)[nH]c1=O`, the IC50 in test [1] worked out at 36.2 µM; in test [2] it was 0.94 µM; in test [3], 20.6 µM; in test [4], 30.5 µM. In test [2], this compound registered an inhibition of 89%. The “fold change (FC)” value in test [5] worked out at 5.6; in test [6] it was 38.7; in test [7], 585; in test [8] it was 22704.
As to `COc1ccc(-c2cc(-c3cccs3)[nH]c(=O)c2C#N)cc1`, the IC50 in test [1] came out at 28.7 µM; in test [2], 6.7 µM; in test [3], 21.9 µM; in test [4], 15.5 µM. For the same compound, in test [2], the inhibition was 73%.
For `N#Cc1c(-c2cccc3ccccc23)cc(-c2cccs2)[nH]c1=O`, the IC50 in test [1] was found to be 28.6 µM; in test [2] it was 4.8 µM; in test [3], 27.1 µM; in test [4], 35.9 µM. The compound also returned an inhibition in test [2] of 77.8%.
In test [2], `COc1ccc(-c2cc(-c3cc4c(ccc5ccccc54)oc3=O)nc(N)c2C#N)cc1` came in with an inhibition of 26%. In test [4], this compound displayed an IC50 of 300 µM.
For `N#Cc1c(-c2cccs2)cc(-c2cccs2)nc1O`, the IC50 was 187 µM in test [1], 3.16 µM in test [2], 249 µM in test [3] and 41.6 µM in test [4]. In addition, the inhibition in test [2] was 84.8%.
The like results for `N#Cc1c(-c2cccc3ccccc23)cc(-c2ccc3ccccc3c2)nc1N` were, in that order, 20.5 µM, 1.16 µM, 19.2 µM, 11.9 µM and 86.5%.
The like results for `N#Cc1c(-c2cccc3ccccc23)cc(-c2cc3c(ccc4ccccc43)oc2=O)[nH]c1=O` were, in that order, 25.9 µM, 1.47 µM, 25.2 µM, 15.3 µM and 79.5%.
`COc1cc2c(c(OC)c1OC)-c1ccc(OC)c(=O)cc1[C@@H](NC(C)=O)CC2` [COLCHICINE]: in test [2], the IC50 came out at 4.3 µM and the inhibition came out at 65.1%.
As to `N#Cc1c(-c2cccs2)cc(-c2cc3c(ccc4ccccc43)oc2=O)nc1N`, the IC50 in test [1] worked out at 80 µM; in test [2], 19.3 µM; in test [3], 59.1 µM; in test [4] it was 35.7 µM. In addition, in test [2], the inhibition was found to be 69.2%.
For the compound `N#Cc1c(-c2cccc3ccccc23)cc(-c2cccs2)nc1N`, the half-maximal inhibitory concentration (IC50) came to 66.7 µM in test [1], 38.8 µM in test [3] and 181 µM in test [4]. Also, the inhibition in test [2] was 58.5%.
For the compound `COc1ccc(-c2cc(-c3cc4c(ccc5ccccc54)oc3=O)[nH]c(=O)c2C#N)cc1`, the IC50 in test [1] is 24.9 µM; in test [2], 10.6 µM; in test [3] it was 36.7 µM; in test [4], 36.3 µM. The compound further yielded an inhibition in test [2] of 83.1%.

The values above are taken from ChEMBL document CHEMBL4033648, “Eco-friendly synthesis of novel cyanopyridine derivatives and their anticancer and PIM-1 kinase inhibitory activities” (Eur J Med Chem, 2017).
